We go through 33 molecules from patent publication US10590129B2 (Incozen Therapeutics Pvt. Ltd., priority 2010, dated 2020).

The test system of this assay is MKN-45 cells. The experiment in a line: Inhibition of MKN-45 proliferation (MTT). It is filed as cell-based, human. The settings on record: for inhibition at 0.1 µM / inhibition at 1 µM / GI50: Homo sapiens, MKN-45, MKN-45 proliferation; for inhibition at 0.1 µM / Inhibition (% Inhibition of MKN-45 proliferation): 0.1 μM. Here is the method: Inhibition of MKN-45 Proliferation:
Cell proliferation assays were carried out using the high Met expressing human gastric adenocarcinoma cell line, MKN-45, according to the following schedule:
Day 1: Cells were plated in 96-well plates in complete growth medium.
Day 2: Compounds at desired concentrations were added.
Day 5: Cell viability was determined using the 3-[4,5-dimethylthiazol-2-yl]-2,5-diphenyltetrazolium bromide (MTT) dye reduction test.

SMILES strings stand for the structures. Where a name gives a salt, the structure may show the parent alone. Some results are limits rather than exact numbers.

A word on the inhibition: it is how much of the control response was suppressed. Read a low inhibition as a response near the control. One may read the GI50 as the concentration giving 50% growth inhibition. The low end stands for more potent growth inhibition, the high end for less potent growth inhibition.

In the case of `NCCCNC(=O)c1ccc(-c2ccc3nnn(Cc4ccc5ncccc5c4)c3n2)cc1F` [Ex 125, N-(3-Aminopropyl)-2-fluoro-4-(3-(quinolin-6-ylmethyl)-3H-[1,2,3]triazolo[4,5-b]pyridin-5-yl)benzamide dihydrochloride], the inhibition at 0.1 µM is < 25%. The inhibition at 1 µM (1 μM) is < 25%.

In turn, `CN(C)CCCNC(=O)c1ccc(-c2ccc3nnn(Cc4ccc5ncccc5c4)c3n2)cc1Cl` [Ex 126, 2-Chloro-N-(3-(dimethylamino)propyl)-4-(3-(quinolin-6-ylmethyl)-3H-[1,2,3]triazolo[4,5-b]pyridin-5-yl)benzamide dihydrochloride] showed an inhibition at 0.1 µM of 75 to 100%.

Molecule `Cl.O=C(Nc1nc[nH]n1)c1ccc(-c2ccc3nnn(Cc4ccc5ncccc5c4)c3n2)cc1F` [Ex 127, 2-Fluoro-4-(3-(quinolin-6-ylmethyl)-3H-[1,2,3]triazolo[4,5-b]pyridin-5-yl)-N-(1H-1,2,4-triazol-3-yl)benzamide hydrochloride] showed an inhibition at 1 µM (1 μM) of 75 to 100%. For the same molecule, the “Inhibition (% Inhibition of MKN-45 proliferation)” value (MKN-45 proliferation) is listed as “A (A = ≥75 to 100%)”.

As to `CCNC(=O)c1ccc(-c2ccc3nnn(Cc4cc5cccnc5cc4F)c3n2)cc1Cl` [Ex 133, 2-Chloro-N-ethyl-4-(3-((7-fluoroquinolin-6-yl)methyl)-3H-[1,2,3]triazolo[4,5-b]pyridin-5-yl)benzamide], the GI50 was ≤ 50 nM and the inhibition at 0.1 µM was 75 to 100%.

`COC(=O)c1ccc(-c2ccc3nnn(Cc4cc5cccnc5cc4F)c3n2)cc1F` [Ex 135, Methyl 2-fluoro-4-(3-((7-fluoroquinolin-6-yl)methyl)-3H-[1,2,3]triazolo[4,5-b]pyridin-5-yl)benzoate]: the inhibition at 0.1 µM was < 25%.

Consider `NC(=O)c1cccc(-c2ccc3nnn(Cc4ccc5ncccc5c4)c3n2)c1` [Ex 138, 3-(3-(Quinolin-6-ylmethyl)-3H-[1,2,3]triazolo[4,5-b]pyridin-5-yl)benzamide], for which the inhibition at 0.1 µM lay in the range of 25 to 50%. For the same molecule, for the setting “1 μM”, the inhibition at 1 µM lay in the range of 75 to 100%.

Turning to `Cl.NC(=O)c1ccc(-c2ccc3nnn(Cc4cc5cccnc5cc4F)c3n2)cc1F` [Ex 141, 2-Fluoro-4-(3-((7-fluoroquinolin-6-yl)methyl)-3H-[1,2,3]triazolo[4,5-b]pyridin-5-yl)benzamide hydrochloride], for the setting “MKN-45 proliferation”, the “Inhibition (% Inhibition of MKN-45 proliferation)” value was “A (A = ≥75 to 100%)”. For the same molecule, where the note is “MKN-45 proliferation, 1 μM”, the “% inhibition @ 1 uM” value is “A (A = ≥75 to 100%)”.

On to `Cc1cc(-c2ccc3nnn(Cc4ccc5ncccc5c4)c3n2)ccc1C(N)=O` [Ex 142, 2-Methyl-4-(3-(quinolin-6-ylmethyl)-3H-[1,2,3]triazolo[4,5-b]pyridin-5-yl)benzamide], for which the GI50 was 50 to 150 nM and the inhibition at 0.1 µM was in the range of 75 to 100%.

For the molecule `c1cnc2ccc(Cn3nnc4ccc(-c5cn[nH]c5)nc43)cc2c1` [Ex 143, 6-((5-(1H-Pyrazol-4-yl)-3H-[1,2,3]triazolo[4,5-b]pyridin-3-yl)methyl)quinoline], the GI50 fell in the range of 50 to 150 nM.

In turn, `Cn1cc(-c2ccc3nnn(Cc4ccc5ncccc5c4)c3n2)cn1` [Ex 144, 6-((5-(1-Methyl-1H-pyrazol-4-yl)-3H-[1,2,3]triazolo[4,5-b]pyridin-3-yl)methyl)quinoline] came in with a GI50 of 50 to 150 nM.

The molecule `Cc1n[nH]c2cc(-c3ccc4nnn(Cc5ccc6ncccc6c5)c4n3)ccc12` [Ex 168, 6-((5-(3-Methyl-1H-indazol-6-yl)-3H-[1,2,3]triazolo[4,5-b]pyridin-3-yl)methyl)quinoline] displayed a GI50 of 150 to 500 nM.

With `c1cnc2ccc(Cn3nnc4ccc(-c5ccc6[nH]ccc6c5)nc43)cc2c1` [Ex 169, 6-((5-(1H-Indol-5-yl)-3H-[1,2,3]triazolo[4,5-b]pyridin-3-yl)methyl)quinoline], the GI50 was < 1000 nM.

Turning to `c1cnc2ccc(Cn3nnc4ccc(-c5ccc6cc[nH]c6c5)nc43)cc2c1` [Ex 170, 6-((5-(1H-Indol-6-yl)-3H-[1,2,3]triazolo[4,5-b]pyridin-3-yl)methyl)quinoline], the GI50 is < 1000 nM.

`Clc1cc(-c2ccc3nnn(Cc4ccc5ncccc5c4)c3n2)ccn1` [Ex 171, 6-((5-(2-Chloropyridin-4-yl)-3H-[1,2,3]triazolo[4,5-b]pyridin-3-yl)methyl)quinoline] returned a GI50 of 150 to 500 nM.

`Cc1n[nH]c2ccc(-c3ccc4nnn(Cc5ccc6ncccc6c5)c4n3)cc12` [Ex 172, 6-((5-(3-Methyl-1H-indazol-5-yl)-3H-[1,2,3]triazolo[4,5-b]pyridin-3-yl)methyl)quinoline]: the GI50 was < 1000 nM.

Consider `c1cncc(-c2ccc3nnn(Cc4ccc5ncccc5c4)c3n2)c1` [Ex 173, 6-((5-(Pyridin-3-yl)-3H-[1,2,3]triazolo[4,5-b]pyridin-3-yl)methyl)quinoline], for which the GI50 was < 1000 nM.

The molecule `c1cnc2ccc(Cn3nnc4ccc(-c5cnn([C@H]6CCNC6)c5)nc43)cc2c1` [Ex 175, (S)-6-((5-(1-(Pyrrolidin-3-yl)-1H-pyrazol-4-yl)-3H-[1,2,3]triazolo[4,5-b]pyridin-3-yl)methyl)quinoline hydrochloride] showed a GI50 of 150 to 500 nM.

As for `c1cnc2ccc(Cn3nnc4ccc(-c5cnn(CCN6CCOCC6)c5)nc43)cc2c1` [Ex 176, 4-(2-(4-(3-(Quinolin-6-ylmethyl)-3H-[1,2,3]triazolo[4,5-b]pyridin-5-yl)-1H-pyrazol-1-yl)ethyl)morpholine hydrochloride], the GI50 is < 1000 nM.

In the case of `c1cnc2ccc(Cn3nnc4ccc(-c5cnn(C6CCOCC6)c5)nc43)cc2c1` [Ex 177, 6-((5-(1-(Tetrahydro-2H-pyran-4-yl)-1H-pyrazol-4-yl)-3H-[1,2,3]triazolo[4,5-b]pyridin-3-yl)methyl)quinoline], the 50% growth inhibitory concentration (GI50) was < 1000 nM.

`Cc1nn(C)c2cc(-c3ccc4nnn(Cc5ccc6ncccc6c5)c4n3)ccc12` [Ex 179, 6-((5-(1,3-dimethyl-1H-indazol-6-yl)-3H-[1,2,3]triazolo[4,5-b]pyridin-3-yl)methyl)quinoline] displayed a GI50 of 150 to 500 nM.

As for `CCc1nn(C(=O)OC(C)(C)C)c2cc(-c3ccc4nnn(Cc5ccc6ncccc6c5)c4n3)ccc12` [Ex 181, tert-Butyl 3-ethyl-6-(3-(quinolin-6-ylmethyl)-3H-[1,2,3]triazolo[4,5-b]pyridin-5-yl)-1H-indazole-1-carboxylate], the inhibition at 0.1 µM is < 25%. For the same molecule, the inhibition at 1 µM (1 μM) was in the range of 75 to 100%.

`CC(C)(c1ccc2ncccc2c1)n1nnc2ccc(-c3cnn(CCO)c3)nc21` [Ex 190, 2-(4-(3-(2-(Quinolin-6-yl)propan-2-yl)-3H-[1,2,3]triazolo[4,5-b]pyridin-5-yl)-1H-pyrazol-1-yl)ethanol]: the inhibition at 0.1 µM was < 25%. Besides, under “1 μM”, the inhibition at 1 µM was < 25%.

For `CC(C)(c1ccc2ncccc2c1)n1nnc2ccc(-c3cn[nH]c3)nc21` [Ex 192, 6-(2-(5-(1H-Pyrazol-4-yl)-3H-[1,2,3]triazolo[4,5-b]pyridin-3-yl)propan-2-yl)quinoline], the inhibition at 0.1 µM is < 25%. In addition, the inhibition at 1 µM (1 μM) is < 25%.

`O=C(Cn1cc(-c2ccc3nnn(Cc4ccc5ncccc5c4)c3n2)cn1)N1CCCC1` [Ex 200, 1-(Pyrrolidin-1-yl)-2-(4-(3-(quinolin-6-ylmethyl)-3H-[1,2,3]triazolo[4,5-b]pyridin-5-yl)-1H-pyrazol-1-yl)ethanone]: the inhibition at 0.1 µM was < 25%.

For the molecule `COCCn1cc(-c2ccc3nnn(Cc4ccc5ncccc5c4)c3n2)cn1` [Ex 201, 6-((5-(1-(2-Methoxyethyl)-1H-pyrazol-4-yl)-3H-[1,2,3]triazolo[4,5-b]pyridin-3-yl)methyl)quinoline], the inhibition at 0.1 µM was < 25%.

As to `c1ccc(Nc2ccc3nnn(Cc4ccc5ncccc5c4)c3n2)cc1` [Ex 202, N-Phenyl-3-(quinolin-6-ylmethyl)-3H-[1,2,3]triazolo[4,5-b]pyridin-5-amine], the inhibition at 0.1 µM was < 25%.

For `c1ccc(Oc2ccc3nnn(Cc4ccc5ncccc5c4)c3n2)cc1` [Ex 203, 6-((5-Phenoxy-3H-[1,2,3]triazolo[4,5-b]pyridin-3-yl)methyl)quinoline], the inhibition at 0.1 µM is < 25%.

Take `NC(=O)c1cc(-c2ccc3nnn(Cc4ccc5ncccc5c4)c3n2)ccc1F` [Ex 206, 2-Fluoro-5-(3-(quinolin-6-ylmethyl)-3H-[1,2,3]triazolo[4,5-b]pyridin-5-yl)benzamide]: the inhibition at 0.1 µM is 50 to 75%.

As for `NC(=O)c1ccc(-c2ccc3nnn(Cc4c(F)cc5ncccc5c4F)c3n2)cc1Cl` [Ex 207, 2-Chloro-4-(3-((5,7-difluoroquinolin-6-yl)methyl)-3H-[1,2,3]triazolo[4,5-b]pyridin-5-yl)benzamide], the GI50 was ≤ 50 nM and the inhibition at 0.1 µM fell in the range of 75 to 100%.

With `C/C(=N/NC(N)=O)c1ccc2nnn(Cc3ccc4ncccc4c3)c2n1` [Ex 209, 2-(1-(3-(Quinolin-6-ylmethyl)-3H-[1,2,3]triazolo[4,5-b]pyridin-5-yl)ethylidene) hydrazinecarboxamide], the GI50 was ≤ 50 nM and the inhibition at 0.1 µM lay in the range of 75 to 100%.

Regarding `NC(=O)c1ccc(-c2ccc3nnn(Cc4ccc5ncsc5c4)c3n2)cc1Cl` [Ex 210, 4-(3-(Benzo[d]thiazol-6-ylmethyl)-3H-[1,2,3]triazolo[4,5-b]pyridin-5-yl)-2-chlorobenzamide], the GI50 is ≤ 50 nM and the inhibition at 0.1 µM is 75 to 100%.

For the molecule `CC(C)(O)c1ccc(-c2ccc3nnn(Cc4ccc5ncccc5c4)c3n2)cc1F` [Ex 211, 2-(2-Fluoro-4-(3-(quinolin-6-ylmethyl)-3H-[1,2,3]triazolo[4,5-b]pyridin-5-yl)phenyl)propan-2-ol], the GI50 fell in the range of 150 to 500 nM.

`NC(=O)c1cc(-c2ccc3nnn(Cc4ccc5ncccc5c4)c3n2)ccc1Cl` [Ex 212, 2-Chloro-5-(3-(quinolin-6-ylmethyl)-3H-[1,2,3]triazolo[4,5-b]pyridin-5-yl)benzamide] displayed an inhibition at 0.1 µM of 75 to 100%. Under “1 μM”, this molecule had an inhibition at 1 µM of 25 to 50%.
